“Also recorded” adds a separate entry of the source.
Columns and labels:
[1] = system: human neural stem cells (hNSCs); experiment: Neuronal differentiation of human neural stem cells (TUJ-1 staining); assay type: cell-based
From the text: FIG. 1 is a dose-response curve showing the effect of MCC-257 on neuronal differentiation of human neural stem cells. Data is presented as the percentage of the neuronal positive control, with basal media values subtracted.
Human neural stem cells (hNSCs) were isolated and grown in monolayer culture, plated, treated with varying concentrations of MCC-257, and stained with TUJ-1 antibody for the detection of neuronal differentiation as described in U.S. Patent Publication 2007/0015138 (incorporated by reference). Mitogen-free test media with a positive control for neuronal differentiation was used along with basal media without growth factors as a negative control.
The data is presented as a percent of neuronal positive control.

male F344 rats [2] = experiment: Novelty-suppressed feeding test (NSF), chronic dosing; assay type: in vivo, rat; details: vs vehicle, p<0.05 one-tailed Student's t-test, FIG. 2
Protocol: The white bar represents the vehicle control (DI water; n=10), the black bar represents fluoxetine dosed at 12.5 mg/kg (n=11) and the grey bar represents MCC-257 dosed at 0.3 mg/kg (n=11). Vehicle and compounds were administered orally once daily (q.d.) for 20 days prior to behavioral testing. Behavioral testing was carried out as described in Example 2. […] Values are the mean±SEM.
The NSF is a conflict test in which food-deprived animals are presented with a food pellet placed in the center of a brightly-lit open field. This paradigm elicits competing motivations: the drive to eat the food pellet, and the fear of venturing into the center of the arena. The dependent variable in this test is the amount of time it takes for an animal to begin eating the pellet, and this latency has been used as an index of anxiety-like behavior and antidepressant activity because it is decreased by classical anxiolytic drugs such as benzodiazepines (Bodnoff et al. “The effects of chronic antidepressant treatment in an animal model of anxiety.” 1988 Psychopharmacology (Berl) 95(3):298-302; Bodnoff et al. “A comparison of the effects of diazepam versus several typical and atypical anti-depressant drugs in an animal model of anxiety.” 1989 Psychopharmacology (Berl) 97(2):277-9; Shephard and Broadhurst, “Hyponeophagia and arousal in rats: effects of diazepam, 5-methoxy-N,N-dimethyltryptamine, d-amphetamine and food deprivation.” 1982 Psychopharmacology (Berl) 78(4):[…]) as well as antidepressants.
NSF is performed as described previously by Santarelli, et al. (2003) with some modifications. Briefly, male F344 rats were dosed orally once daily (q.d.) for 20-days with vehicle (DI water; n=10), 12.5 mg/kg fluoxetine (n=11) or 0.3 mg/kg MCC-257 (n=11). Animals were food deprived for 24 hours prior to testing. On day 22, 60 minutes after drug administration, NSF was performed in an open field chamber. A single pellet of rodent chow was placed in the center of the open field. […] Saved videos were subsequently scored by blinded observers and the latency to eat the pellet was recorded.

[3] = system: neural progenitor cells within the dentate gyrus of the hippocampus; experiment: In vivo neurogenesis, BrdU positive cell counts in the dentate gyrus; set-up: species or system rat; details: 0.3 mg/kg orally q.d., chronic (26 or 28 days as printed); vs vehicle; FIG. 3
Protocol: The white bar represents vehicle (DI water, n=11) and the grey bar represents MCC-257 dosed at 0.3 mg/kg (n=10). Both vehicle and MCC-257 were dosed orally once daily (q.d.) for 26 days prior to analysis. […] Data are presented as the number of BrdU cells per cubic mm of dentate gyrus. […] Values are the mean±SEM.
For the in vivo neurogenesis assays, male F344 rats were dosed orally once daily (q.d.) for 28-days with vehicle (DI water; n=11) or 0.3 mg/kg MCC-257 ([…]). BrdU was administered once daily between days 9 and 14 (100 mg/kg/day, i.p.).

male F344 rats [4] = experiment: Novel Object Recognition (NOR) cognition assay; assay type: in vivo, rat; details: 48-hour delay; increasing oral doses q.d., chronic; vs vehicle; FIG. 4
Protocol: Behavioral testing was carried out as described in Example 2. Data is presented as the mean percentage of visits to a novel object. The white bar represents vehicle (DI water: n=11) and grey bars represent increasing doses of MCC-257 (0.1 mg/kg, n=10; 0.3 mg/kg, n=10; 3.0 mg/kg, n=10). All animals were dosed orally once daily (q.d.) for 29 days prior to testing. […] Values are the mean±SEM.
NOR was performed as described previously by Broadbent et al., (“Spatial memory, recognition memory, and the hippocampus.” 2004 PNAS 101(40):14511-14520) with some modifications. The apparatus consisted of an open field (45×45×50 cm high) made of polycarbonate. Triplicate copies were used of the objects to be discriminated. Care was taken to ensure that the pair of objects tested were made from the same material so that they could not be distinguished readily by olfactory cues although they had very different appearances. Each test session consisted of two phases. In the initial familiarization phase, two identical objects (A1 and A2) were placed in the far corners of the box arena. A rat was then placed in the middle of the arena and allowed 15 minutes to explore both objects. Exploration of an object was defined as directing the nose to the object at a distance of less than 2 cm and/or touching it with the nose. After a delay of 48-hours the rat was re-introduced to the arena (“test phase”). […]

Structure (SMILES) | EC50 ([1]; Homo sapiens, Neural stem cell, read-out: EC50 of neuronal differentiation) | effect on neuronal differentiation ([1]; concentration response curve, percent of neuronal positive control, FIG. 1) | latency to eat a food pellet in a novel environment (male F344 rats [2]; 0.3 mg/kg orally q.d. for 20 days) | BrdU positive cells per cubic mm in granule cell layer of dentate gyrus (neurogenesis) [3] | preference for the novel object (percent visits) (male F344 rats [4]) | latency to eat a food pellet in a novel environment (male F344 rats [2]; 12.5 mg/kg orally q.d. for 20 days) | latency to eat a food pellet in a novel environment (male F344 rats [2]; 12.5 mg/kg orally q.d. for 20 days, listed as Fluoxetine)
CO[C@]1(C(=O)N[C@@H]2CC[C@@]3(C)[C@@H](CC[C@@H]4[C@@H]3CC[C@]3(C)[C@@H]([C@H](C)CCCC(C)C)CC[C@@H]43)C2)C[C@H](O)[C@@H](NC(C)=O)[C@H]([C@H](O)[C@H](O)CO)O1 [MCC-257, 5-acetamido-N-(5alpha-cholestan-3alpha-yl)-3,5-dideoxy-2-O-methyl-D-glycero-alpha-D-galacto-non-2-ulopyranosonamide] | 90 nM | promoted neuronal differentiation in a concentration dependent manner | significantly reduced latency to eat | significant increase; also recorded: significantly increased neurogenesis | dose dependent increase in preference for the novel object; also recorded: dose-related increase in preference for the novel object |  | 
CNCCC(Oc1ccc(C(F)(F)F)cc1)c1ccccc1 (stereo not shown) [fluoxetine, reference compound] |  |  |  |  |  | significantly reduced | significantly reduced latency to eat

From patent US20090239834A1, “MCC-257 MODULATION OF NEUROGENESIS” (BrainCells, Inc., priority 2008, published 2009)
